Test results published in PMC10652874, “Investigation into the mechanism of action of the antimicrobial peptide epilancin 15X” (Frontiers in Microbiology, 2023).
pEC50: −log10 of the molar value.

Columns and labels:
S. carnosus TM300 [1] = experiment: MIC determination in 96-well microtiter plate; type: cell-based, Staphylococcus carnosus; settings: BHI, 37°C, 10^5 CFU/mL, OD600 after 18 h
Experimental: (§1) MIC determination was performed in a 96-well microtiter plate as described previously ([Wu et al., 2019]). Sensitive bacterial culture was grown in the appropriate medium (BHI for S. carnosus; LB for B. subtilis) at 37°C overnight. The culture was diluted to 10^5 CFU/mL in medium in each well. Epilancin 15X or its analog was dissolved in water and serially diluted to obtain final concentrations of 20, 10, 5, 2.5, 1.25, 0.625, 0.3125, 0.156, 0.078, 0.039, 0.019, and 0.009 μM. OD600 readings were obtained after 18 h using a Synergy H4 Hybrid Multi-Mode Microplate Reader (BioTeK). Cell-free untreated medium, and untreated cell culture were used as negative controls. The MIC of nisin against B. subtilis BSF2470 was determined following the same methods.

[2] = Liposome permeabilization (sulforhodamine B dye leakage) assay; type: biochemical
Experimental: For unilamellar liposome preparation, a total of 100 μL of 30 mM 1,2-dioleoyl-sn-glycero-3-phosphocholine (DOPC; Avanti Polar Lipids) and the following lipids dissolved in chloroform were mixed in a glass tube in the appropriate ratio: POPG (Avanti Polar Lipids), POPE (Avanti Polar Lipids), POPS (Avanti Polar Lipids), and purified S. aureus LTA (InvivoGen, catalog # tlrl-pslta). The solvent was evaporated under a stream of nitrogen gas and the glass vial was placed in a vacuum desiccator overnight. A total of 1 mL HEPES-Buffered Saline (HBS) composed of 5 mM HEPES (pH 7.6) and 150 mM NaCl, and 30 mM sulforhodamine B (SRB) was added to each vial. The lipid solution was vortexed for 10 min and lipids were hydrated by five freeze–thaw cycles with liquid N2. The lipid solution was diluted with HBS buffer to 3 mL and the solution was passed 29 times through a mini extruder (Avanti Polar Lipids) with a filter of […] pore diameter to form lipid vesicles of homogeneous size. The extruded solution was passed through Sephadex 50 resin to remove the free sulforhodamine B (liposomes eluted faster than the dye). The size of the liposomes was tested using dynamic light scattering (DLS, Malvern Zetasizer, Dr. Catherine J. Murphy lab, Department of Chemistry, UIUC) and analyzed using Zetasizer software. The DLS data quality was interpreted by the instrument through its embedded algorithm to confirm the data quality. The polydispersity index (PDI), which measures the size distributions was used to monitor the quality of the liposomes. The small PDI indices obtained from DLS readings indicate that the liposomes were monodisperse ([Farkas and Kramar, 2021]). The total lipid concentration was measured with NMR spectroscopy using a reported method ([Hein et al., 2016]). The vesicles were stored at 4°C and used within 1–2 days.
For the dye leakage assay, 100 μL SRB-loaded liposomes (80 μM lipid; 100–200 nm size) were placed in each well in a 96-well microplate. Fluorescence of SRB-loaded liposomes was monitored over time on a Synergy H4 Hybrid Multi-Mode Microplate Reader (BioTeK) using λEx at […]. To each well, a different concentration of peptides or 0.02% triton X-100 was added 5 min after adding liposomes. Liposomes supplied with water were treated as the negative control. The fluorescence emission was measured every 15 s for 2 h. Fluorescence counts were recorded as % leakage and plotted as a function of time. The concentration of epilancin 15X where the SRB leaked from the liposomes reached half of the triton X-100 leakage was recorded as C1/2, and C1/2 values were plotted against DOPC and supplemented lipid concentrations.

S. carnosus TM300 [3] = experiment: Agar diffusion bioactivity assay with lipids in flanking wells; type: cell-based, Staphylococcus carnosus; settings: S. carnosus TM300 on BHI agar, overnight
Experimental: For agar diffusion antimicrobial activity assays, the autoclaved 1.5% agar was prepared in the appropriate medium and cooled in a 40°C water bath for 15 min. A total of 50 μL overnight culture of the sensitive strain was added to the agar and kept in the water bath. A total of 25 mL seeded agar was poured into a sterile OmniTray (Nunc) and allowed to solidify at room temperature for 30 min. An additional 35 mL of seeded agar was poured over the lower solidified agar layer. A sterile 96-well PCR plate was placed in the molten agar upper layer, and the agar was allowed to solidify at 25°C for 30 min. After sufficient solidification, the 96-well PCR plate was removed. Then 20 μL volume of each peptide was dispensed into the wells. Plates were left at 25°C for 30 min until the wells were dried, and the plates were incubated at 37°C overnight. The antibacterial activity was determined by the presence or absence of growth inhibition.
Figure S5. (A) Zones of growt h inhibition of epilancin 15X a nd nisin A against S. carnosus TM30 0 grown on BHI agar plates. The indicated amounts of antibiotics were placed in the well shown in the center of the zone of inhibition. […]

B. subtilis ATCC 6633 = experiment: MIC determination in 96-well microtiter plate; type: cell-based, Bacillus subtilis; settings: LB, 37°C, 10^5 CFU/mL, OD600 after 18 h
Experimental: as §1

B. subtilis 168 = experiment: MIC determination in 96-well microtiter plate; type: cell-based, Bacillus subtilis; settings: LB, 37°C, 10^5 CFU/mL, OD600 after 18 h
Experimental: as §1

[4] = test system: B. subtilis BSF2470 (1A980); experiment: MIC determination in 96-well microtiter plate; type: cell-based, Bacillus subtilis; settings: LB, 37°C, 10^5 CFU/mL, OD600 after 18 h
Experimental: as §1

[5] = test system: B. subtilis BSF2470 (1A980); experiment: Killing kinetics (CFU counting); type: cell-based, Bacillus subtilis
Experimental: (§2) S. carnosus TM300 and B. subtilis BSF2470 (1A980) cell cultures were grown to mid-log phase in BHI and LB broth, respectively. […] At each time point, an aliquot of […] treated-culture was serial-diluted and placed on BHI agar plates for S. carnosus and LB agar plates for B. subtilis. The plates were grown for 1 day at 37°C and the colonies were counted. Each experiment was performed in triplicate and untreated cell culture was used as the negative control.

S. carnosus TM300 [6] = experiment: Killing kinetics (CFU counting); type: cell-based, Staphylococcus carnosus; settings: S. carnosus TM300, mid-log, 1x and 4x MIC, 30-180 min, triplicate
Experimental: as §2

## Epilancin 15X
S. carnosus TM300 [1]
  MIC: 0.16 µM
[2]; DOPC liposomes supplemented with POPE, highest concentration tested 64 µM, read-out: C1/2 (concentration giving 50% of triton X-100 leakage)
  pEC50: < 4.19
[2]; DOPC liposomes with negatively charged lipids LTA, POPS, POPG
  fluorescence emission from SRB dye leakage: increased
[2]; DOPC only, 80 μM lipid, epilancin 15X up to 64 μM, fluorescence over 2 h
  SRB dye leakage from DOPC liposomes: not detected
[2]; negatively charged lipids S. aureus LTA, POPG, POPS
  C1/2 values as a function of supplemented lipid concentration: negative slope
[2]; neutral lipid POPE
  SRB dye leakage from DOPC liposomes doped with POPE: not detected
[2]; neutral lipids POPC and POPE
  liposome leakage as a function of supplemented lipid concentration: no change in liposome leakage
S. carnosus TM300 [3]
  antagonism of bioactivity (zone of growth inhibition) by purified S. aureus LTA: antagonized
B. subtilis ATCC 6633
  MIC: 1.25 µM
B. subtilis 168
  MIC: 4.00 µM
[4]
  MIC: 2.5 µM
[5]; B. subtilis BSF2470, 4x MIC, 90 and 120 minutes, at the dilution factor plated
  growth (colonies) after treatment: no growth was observed
[5]; B. subtilis BSF2470, mid-log, 1x and 4x MIC, 30-180 min, triplicate
  number of colony forming units (CFU): significant decrease
S. carnosus TM300 [6]
  number of colony forming units (CFU): significant decrease
